Experimental findings from BindingDB's records for doi:10.1021/jm00019a006 (Glaxo Wellcome Medicines Research Centre, 1995) are described below.

The assay can be described thus: The compound was tested for binding affinity against Tachykinin receptor 1 from rabbit cortex.

Usually pKi stands for the negative decadic logarithm of the Ki, by convention in mol/L. Read a low pKi as a high Ki.

pKi: −log10 of the molar value.

The compound `O=C1OC2(CCN(CCc3c[nH]c4ccc(F)cc34)CC2)CN1Cc1ccccc1` had a pKi of 5.10.
